Assay: Inhibition of Brucella suis histidinol dehydrogenase assessed as NADH released as a by-product preincubated for 5 min at 30 degC by spectrophotometric method

SMILES | IC50
Cc1ccc(CC(=O)[C@@H](N)Cc2c[nH]cn2)cc1 | 0.015 µM
O=C(Cc1ccc(Br)cc1)[C@@H]1Cc2cncn2C(=O)N1 | 98 µM
CCCCCc1ccc(C#Cc2ccc(CC(=O)[C@@H]3Cc4cncn4C(=O)N3)cc2)cc1 | 175 µM
Cc1ccc(CC(=O)[C@@H]2Cc3cncn3C(=S)N2)cc1 | 95 µM
N[C@@H](Cc1c[nH]cn1)C(=O)Cc1ccc(Br)cc1 | 0.006 µM
N[C@@H](Cc1c[nH]cn1)C(=O)Cc1ccc(F)cc1F | 0.01 µM
N[C@@H](Cc1c[nH]cn1)C(=O)Cc1ccc(Cl)cc1 | 0.012 µM
CCCCCc1ccc(C#Cc2ccc(CC(=O)[C@@H](N)Cc3c[nH]cn3)cc2)cc1 | 0.009 µM
N[C@@H](Cc1c[nH]cn1)C(=O)Cc1ccc(-c2ccccc2)cc1 | 0.012 µM
Cc1ccc(CC(=O)[C@@H]2Cc3cncn3C(=O)N2)cc1 | 113 µM
O=C(Cc1ccc(F)cc1F)[C@@H]1Cc2cncn2C(=O)N1 | 143 µM
O=C(Cc1ccc(-c2ccccc2)cc1)[C@@H]1Cc2cncn2C(=S)N1 | 5 µM
O=C(Cc1ccc(Cl)cc1)[C@@H]1Cc2cncn2C(=S)N1 | 74 µM
O=C(Cc1ccc(Br)cc1)[C@@H]1Cc2cncn2C(=S)N1 | 105 µM
O=C(Cc1ccc(-c2ccccc2)cc1)[C@@H]1Cc2cncn2C(=O)N1 | 86 µM
COC(=O)[C@@H]1Cc2cncn2C(=S)N1 | 18 µM
O=C(Cc1ccc(Cl)cc1)[C@@H]1Cc2cncn2C(=O)N1 | 92 µM
O=C(Cc1ccc(F)cc1F)[C@@H]1Cc2cncn2C(=S)N1 | 95 µM
COC(=O)[C@@H]1Cc2cncn2C(=O)N1 | 532 µM
CCCCCc1ccc(C#Cc2ccc(CC(=O)[C@@H]3Cc4cncn4C(=S)N3)cc2)cc1 | 322 µM
